≈ marks a conversion by molar mass, not a printed value. Bridge positions count the residues as written; N and C are the ends. Square brackets hold non-standard residues; d marks the D form. Ends that are not written are not given here. Peptide text beside a SMILES is read from it. R8 = C=CCCCCCC[C@@](C)(N)C(=O)O; S5 = C=CCCC[C@](C)(N)C(=O)O; Nle = CCCC[C@H](N)C(=O)O
Experiments:
E. coli = format: cell-based, Escherichia coli
Summary of the method: (§1)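 Broth microdilution; anion-exchange-refined MHB; overnight culture at 37° C, diluted and regrown; inoculum 5×10^5 CFU/ml final; peptides serially diluted in water; 20-24 h, 37° C; MIC = lowest concentration without visible growth.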

B. cereus = format: cell-based, Bacillus cereus
Summary of the method: as §1

S. marcescens = format: cell-based
Experimental: Antimicrobial Activity Assay:
The following microbroth dilution protocol was adapted to determine the minimum inhibitory concentration (MIC) of each peptide. First, Mueller-Hinton broth (MHB) was passed through an anion exchange column to remove polyanionic species and generate refined MHB. […] Briefly, bacterial cells was grown overnight in refined MHB at 37° C. and then diluted and allowed to grow again for several hours. Serial dilutions of peptide stocks in water (10 μl) were prepared using clear round-bottom polypropylene 96-well plates. Then 90 μl of bacteria in refined MHB was added to give a final inoculum of 5×10^5 CFU/ml. The plates were then covered with porous tape to reduce evaporation, and incubated for 20-24 hours at 37° C. The MIC is the minimum peptide concentration at which no visible growth was observed.

[1] = Circular dichroism spectroscopy (α-helicity); format: physicochemical; details: for α-helicity by CD in water, absence of TFE: aqueous solution, no TFE
Experimental: To determine the helicity of the panel of stapled magainin II analogues, the peptides were dissolved in water using CD spectroscopy in the presence and absence of trifluoroethanol (TFE; 50% v/v), a helix-promoting solvent. […] Levels of helicity ranged from approximately 34% for MagStap 2 to 100% for MagStap 1 and 3, as compared to an idealized α-helical peptide. […] When the helicity in the presence of TFE was measured, most of the stapled analogues were 50-60% helical except for MagStap 3, which retained 100% α-helical content.
Circular Dichroism Spectroscopy:
Compounds were dissolved in an aqueous solution (e.g. 5 mM potassium phosphate solution at pH 7, or distilled H2O, to concentrations of 25-50 μM). Circular dichroism (CD) spectra were obtained on a spectropolarimeter (Aviv) using standard measurement parameters (e.g., temperature, 37° C.; wavelength, 190-260 nm; step resolution, 0.5 nm; speed, 20 nm/sec; accumulations, 10; response, 1 sec; bandwidth, 1 nm; path length, 0.1 cm). The α-helical content of each peptide was calculated by dividing the mean residue ellipticity by the reported value for a model helical decapeptide (see, e.g., Yang et al., Meth Enzymol. 130:208 (1986)).

human red blood cells = format: cell-based
Summary of the method: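 Hemolysis expressed as absorbance of released hemoglobin (570 nm) normalized between untreated and 1% Triton-X100 controls, with MHC taken as peptide concentration giving under 1% release. Peptide dilutions were exposed for 1 h at 37° C to a 1% (v/v) suspension of washed human red cells in PBS.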

S. aureus = format: cell-based, Staphylococcus aureus
Summary of the method: as §1

P. aeruginosa = format: cell-based, Pseudomonas aeruginosa
Summary of the method: as §1

| MIC E. coli (E. coli) [µg/mL] | MIC B. cereus (B. cereus) [µg/mL] | MIC S. marcescens (S. marcescens) [µg/mL] | α-helicity by CD in water, absence of TFE [1] | α-helicity by CD in the presence of TFE ([1]; TFE 50% v/v) [%] | MIC S. aureus (S. aureus) [µg/mL] | MIC P. aeruginosa (P. aeruginosa) [µg/mL] | Compound | hemolytic activity (in words) (human red blood cells) |
| --- | --- | --- | --- | --- | --- | --- | --- | --- |
| 12.5 (≈ 5.03 µM) | 12.5 (≈ 5.03 µM) | >50 | 100% |  |  |  | CCCC[C@H](NC(=O)[C@@H](NC(=O)[C@H](CCC(=O)O)NC(=O)[C@H](C)NC(=O)[C@@H](NC(=O)[C@H](Cc1ccccc1)NC(=O)[C@H](C)NC(=O)[C@]1(C)CCCC=CCCCCCC[C@@](C)(NC(=O)[C@H](CC(C)C)NC(=O)[C@H](Cc2ccccc2)NC(=O)[C@H](CCCCN)NC(=O)CNC(=O)[C@@H](NC(=O)CN)[C@@H](C)CC)C(=O)N[C@@H](C)C(=O)N[C@@H](C)C(=O)N[C@@H](CCCCN)C(=O)N[C@@H](CCCCN)C(=O)N[C@@H](Cc2ccccc2)C(=O)N[C@@H](C)C(=O)N1)C(C)C)[C@@H](C)CC)C(=O)N[C@@H](CC(N)=O)C(=O)N[C@@H](CO)C(N)=O [MagStap 1] (H-GIGKFL[R8]AAKKFA[S5]AFVAEI[Nle]NS-NH2; staple 7-14; N-terminus assumed) |  |
| 3.1 (≈ 1.19 µM) | 3.1 (≈ 1.19 µM) | >50 | approximately 34% |  |  |  | CCCC[C@H](NC(=O)[C@@H](NC(=O)[C@H](CCC(=O)O)NC(=O)[C@H](C)NC(=O)[C@@H](NC(=O)[C@H](Cc1ccccc1)NC(=O)[C@]1(C)CCCC=CCCCCCC[C@@](C)(NC(=O)[C@H](Cc2c[nH]cn2)NC(=O)[C@H](CC(C)C)NC(=O)[C@H](Cc2ccccc2)NC(=O)[C@H](CCCCN)NC(=O)CNC(=O)[C@@H](NC(=O)CN)[C@@H](C)CC)C(=O)N[C@@H](C)C(=O)N[C@@H](CCCCN)C(=O)N[C@@H](CCCCN)C(=O)N[C@@H](Cc2ccccc2)C(=O)N[C@@H](C)C(=O)N[C@@H](CCCCN)C(=O)N1)C(C)C)[C@@H](C)CC)C(=O)N[C@@H](CC(N)=O)C(=O)N[C@@H](CO)C(N)=O [MagStap 2] (H-GIGKFLH[R8]AKKFAK[S5]FVAEI[Nle]NS-NH2; staple 8-15; N-terminus assumed) |  |
| 3.1 (≈ 1.22 µM) | 6.2 (≈ 2.45 µM) | >50 | 100% | 100 |  |  | CCCC[C@H](NC(=O)[C@@H](NC(=O)[C@H](CCC(=O)O)NC(=O)[C@H](C)NC(=O)[C@@H](NC(=O)[C@]1(C)CCCC=CCCCCCC[C@@](C)(NC(=O)[C@H](C)NC(=O)[C@H](Cc2c[nH]cn2)NC(=O)[C@H](CC(C)C)NC(=O)[C@H](Cc2ccccc2)NC(=O)[C@H](CCCCN)NC(=O)CNC(=O)[C@@H](NC(=O)CN)[C@@H](C)CC)C(=O)N[C@@H](CCCCN)C(=O)N[C@@H](CCCCN)C(=O)N[C@@H](Cc2ccccc2)C(=O)N[C@@H](C)C(=O)N[C@@H](CCCCN)C(=O)N[C@@H](C)C(=O)N1)C(C)C)[C@@H](C)CC)C(=O)N[C@@H](CC(N)=O)C(=O)N[C@@H](CO)C(N)=O [MagStap 3] (H-GIGKFLHA[R8]KKFAKA[S5]VAEI[Nle]NS-NH2; staple 9-16; N-terminus assumed) |  |
| 12.5 (≈ 4.9 µM) | 12.5 (≈ 4.9 µM) | >50 |  |  |  |  | CCCC[C@H](NC(=O)[C@@H](NC(=O)[C@H](CCC(=O)O)NC(=O)[C@]1(C)CCCC=CCCCCCC[C@@](C)(NC(=O)[C@H](CCCCN)NC(=O)[C@H](C)NC(=O)[C@H](C)NC(=O)[C@H](Cc2c[nH]cn2)NC(=O)[C@H](CC(C)C)NC(=O)[C@H](Cc2ccccc2)NC(=O)[C@H](CCCCN)NC(=O)CNC(=O)[C@@H](NC(=O)CN)[C@@H](C)CC)C(=O)N[C@@H](Cc2ccccc2)C(=O)N[C@@H](C)C(=O)N[C@@H](CCCCN)C(=O)N[C@@H](C)C(=O)N[C@@H](Cc2ccccc2)C(=O)N[C@@H](C(C)C)C(=O)N1)[C@@H](C)CC)C(=O)N[C@@H](CC(N)=O)C(=O)N[C@@H](CO)C(N)=O [MagStap 5] (H-GIGKFLHAAK[R8]FAKAFV[S5]EI[Nle]NS-NH2; staple 11-18; N-terminus assumed) | lowest hemolytic activity |
| 1.6 (≈ 0.628 µM) | 3.1 (≈ 1.22 µM) | >50 |  |  | 3.1 (≈ 1.22 µM) | 1.6 (≈ 0.628 µM) | CC[C@H](C)[C@H](NC(=O)CN)C(=O)NCC(=O)N[C@@H](CCCCN)C(=O)N[C@@H](Cc1ccccc1)C(=O)N[C@@H](CC(C)C)C(=O)N[C@@H](CCCCN)C(=O)N[C@@H](CCCCN)C(=O)N[C@@H](C)C(=O)N[C@@H](CCCCN)C(=O)N[C@]1(C)CCCCCCC(O)C(O)CCC[C@@](C)(C(=O)N[C@H](C(=O)N[C@@H](CC(C)C)C(=O)N[C@@H](CCCCN)C(=O)N[C@@H](CCCCN)C(N)=O)[C@@H](C)CC)NC(=O)[C@H](C(C)C)NC(=O)[C@H](Cc2ccccc2)NC(=O)[C@H](C)NC(=O)[C@H](CCCCN)NC(=O)CNC(=O)[C@H](Cc2ccccc2)NC1=O (stereo partly drawn) [PexDiol 5] | significant hemolytic activity |
| 3.1 (≈ 1.21 µM) | 3.1 (≈ 1.21 µM) | >50 |  |  | 3.1 (≈ 1.21 µM) | 3.1 (≈ 1.21 µM) | CC[C@H](C)[C@H](NC(=O)CN)C(=O)NCC(=O)N[C@@H](CCCCN)C(=O)N[C@@H](Cc1ccccc1)C(=O)N[C@@H](CC(C)C)C(=O)N[C@@H](CCCCN)C(=O)N[C@]1(C)CCCCCCC=CCCC[C@@](C)(C(=O)N[C@@H](Cc2ccccc2)C(=O)N[C@H](C(=O)N[C@@H](CCCCN)C(=O)N[C@H](C(=O)N[C@@H](CC(C)C)C(=O)N[C@@H](CCCCN)C(=O)N[C@@H](CCCCN)C(N)=O)[C@@H](C)CC)C(C)C)NC(=O)[C@H](CCCCN)NC(=O)CNC(=O)[C@H](Cc2ccccc2)NC(=O)[C@H](CCCCN)NC(=O)[C@H](CCCCN)NC(=O)[C@H](C)NC1=O [PexStap 2] (H-GIGKFLK[R8]AKKFGK[S5]FVKILKK-NH2; staple 8-15; N-terminus assumed) |  |
| 3.1 (≈ 1.24 µM) | 6.3 (≈ 2.51 µM) | >50 |  |  | 3.1 (≈ 1.24 µM) | 1.6 (≈ 0.638 µM) | CC[C@H](C)[C@H](NC(=O)CN)C(=O)NCC(=O)N[C@@H](CCCCN)C(=O)N[C@@H](Cc1ccccc1)C(=O)N[C@@H](CC(C)C)C(=O)N[C@@H](CCCCN)C(=O)N[C@@H](CCCCN)C(=O)N[C@@H](C)C(=O)N[C@@H](CCCCN)C(=O)N[C@@H](CCCCN)C(=O)N[C@]1(C)CCCCCCC=CCCC[C@@](C)(C(=O)N[C@@H](CC(C)C)C(=O)N[C@@H](CCCCN)C(=O)N[C@@H](CCCCN)C(N)=O)NC(=O)[C@H](CCCCN)NC(=O)[C@H](C(C)C)NC(=O)[C@H](Cc2ccccc2)NC(=O)[C@H](C)NC(=O)[C@H](CCCCN)NC(=O)CNC1=O [PexStap 6] (H-GIGKFLKKAKK[R8]GKAFVK[S5]LKK-NH2; staple 12-19; N-terminus assumed) |  |
| 3.3 | 3.1 | >50 |  |  | 6.3 | 1.6 | GIGKFLKKAKKFGKAFVKILKK-NH2 [Pexiganan, reference compound] | no hemolysis |

— US20200231638A1, “STABILIZED ANTI-MICROBIAL PEPTIDES” (priority 2015, published 2020)
